ChEMBL document CHEMBL1201862, “PubChem BioAssay data set” (2004)
The source made the active and inactive calls.

Assays:
[1] = biological target: T1, Short transient receptor potential channel 4 (Mus musculus, UniProt Q9QUQ5); test: TRPC4 positive allosteric modulators, dose response, cell-based, HEK293 TRPC4/mu-opioid, Fluo-4 calcium, EC20 DAMGO (AID 434941); type: functional
T1 sequence (Q9QUQ5 whole entry): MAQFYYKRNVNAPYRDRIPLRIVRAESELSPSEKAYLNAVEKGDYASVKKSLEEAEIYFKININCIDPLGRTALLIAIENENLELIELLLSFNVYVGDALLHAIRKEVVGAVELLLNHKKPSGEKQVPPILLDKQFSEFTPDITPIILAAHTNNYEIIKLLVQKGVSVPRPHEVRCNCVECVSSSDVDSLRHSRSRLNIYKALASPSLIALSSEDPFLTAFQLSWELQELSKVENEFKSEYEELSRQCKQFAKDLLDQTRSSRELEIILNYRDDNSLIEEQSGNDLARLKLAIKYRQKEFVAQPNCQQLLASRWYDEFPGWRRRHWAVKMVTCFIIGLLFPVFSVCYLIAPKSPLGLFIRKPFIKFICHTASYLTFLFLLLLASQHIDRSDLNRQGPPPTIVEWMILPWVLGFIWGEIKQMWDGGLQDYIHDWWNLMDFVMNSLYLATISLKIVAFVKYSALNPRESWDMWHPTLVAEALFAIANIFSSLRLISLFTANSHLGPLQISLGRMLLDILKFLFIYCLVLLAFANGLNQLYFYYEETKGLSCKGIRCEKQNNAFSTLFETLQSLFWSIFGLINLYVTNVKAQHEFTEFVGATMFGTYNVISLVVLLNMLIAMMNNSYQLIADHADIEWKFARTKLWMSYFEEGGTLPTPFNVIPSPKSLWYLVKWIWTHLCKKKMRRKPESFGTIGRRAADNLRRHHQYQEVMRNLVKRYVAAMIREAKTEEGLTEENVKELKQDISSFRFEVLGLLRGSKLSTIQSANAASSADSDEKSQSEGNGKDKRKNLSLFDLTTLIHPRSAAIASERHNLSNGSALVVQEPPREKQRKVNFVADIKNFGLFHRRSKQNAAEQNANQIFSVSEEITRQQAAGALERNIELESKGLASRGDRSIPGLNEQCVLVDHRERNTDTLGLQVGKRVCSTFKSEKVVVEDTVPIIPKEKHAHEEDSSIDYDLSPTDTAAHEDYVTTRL

[2] = biological target: Intestinal-type alkaline phosphatase (Homo sapiens, UniProt P09923); test: activation of human intestinal alkaline phosphatase – biochemical, dose response (AID 488873); type: functional
[3] = test system: H9c2; test: cells; type: functional, cell-based; conditions: Rattus norvegicus, H9c2, Myocardium;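 note: confirmatory concentration-response retest of ultra-high-throughput screening hits for modulation of myocardial damage; cell death induced by hydrogen peroxide oxidative stress; compound pretreatment for 60 min then peroxide exposure for 2 h; potency is for protecting the cells against peroxide damage rather than for killing them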
[4] = biological target: T2, Histone-lysine N-methyltransferase NSD2 (Homo sapiens, UniProt O96028); type: biochemical
T2 sequence (O96028 whole entry): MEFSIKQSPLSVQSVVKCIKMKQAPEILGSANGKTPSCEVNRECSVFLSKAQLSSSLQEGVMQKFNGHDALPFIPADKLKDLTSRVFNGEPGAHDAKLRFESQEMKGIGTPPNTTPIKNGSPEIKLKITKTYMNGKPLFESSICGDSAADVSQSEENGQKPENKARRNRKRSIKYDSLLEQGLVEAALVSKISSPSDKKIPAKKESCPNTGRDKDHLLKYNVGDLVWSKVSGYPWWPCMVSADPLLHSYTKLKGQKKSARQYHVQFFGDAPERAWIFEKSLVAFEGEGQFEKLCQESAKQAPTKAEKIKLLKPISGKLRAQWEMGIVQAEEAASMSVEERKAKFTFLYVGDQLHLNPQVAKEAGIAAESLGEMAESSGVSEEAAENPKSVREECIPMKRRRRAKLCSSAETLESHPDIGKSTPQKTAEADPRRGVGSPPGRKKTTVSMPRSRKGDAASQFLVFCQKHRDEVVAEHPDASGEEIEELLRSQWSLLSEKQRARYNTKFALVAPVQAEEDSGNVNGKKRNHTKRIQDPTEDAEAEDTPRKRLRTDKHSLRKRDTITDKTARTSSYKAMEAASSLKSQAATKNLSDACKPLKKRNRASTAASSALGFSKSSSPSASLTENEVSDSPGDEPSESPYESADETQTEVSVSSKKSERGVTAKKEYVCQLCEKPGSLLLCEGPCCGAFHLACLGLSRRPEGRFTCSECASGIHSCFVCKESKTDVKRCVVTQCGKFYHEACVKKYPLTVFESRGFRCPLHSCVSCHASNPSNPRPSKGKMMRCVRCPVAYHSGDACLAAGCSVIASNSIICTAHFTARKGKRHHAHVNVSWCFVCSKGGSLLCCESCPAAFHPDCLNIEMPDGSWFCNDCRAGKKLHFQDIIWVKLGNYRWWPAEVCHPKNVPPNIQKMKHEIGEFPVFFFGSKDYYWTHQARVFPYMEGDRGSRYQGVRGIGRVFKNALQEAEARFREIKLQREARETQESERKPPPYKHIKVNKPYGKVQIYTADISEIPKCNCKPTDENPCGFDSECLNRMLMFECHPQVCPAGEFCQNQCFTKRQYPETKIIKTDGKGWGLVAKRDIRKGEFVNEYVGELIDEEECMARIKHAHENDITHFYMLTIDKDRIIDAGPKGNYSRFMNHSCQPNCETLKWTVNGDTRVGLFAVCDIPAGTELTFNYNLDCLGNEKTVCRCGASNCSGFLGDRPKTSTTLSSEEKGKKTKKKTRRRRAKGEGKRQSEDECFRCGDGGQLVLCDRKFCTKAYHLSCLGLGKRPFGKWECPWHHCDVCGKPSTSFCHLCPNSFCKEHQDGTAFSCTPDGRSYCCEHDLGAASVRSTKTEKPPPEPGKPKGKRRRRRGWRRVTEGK

[5] = biological target: T3, Alkaline phosphatase, tissue-nonspecific isozyme (Homo sapiens, UniProt P05186); test: TNAP enzyme inhibition by screening hits, dose response, selectivity assay for mouse IAP inhibitor project, biochemical, human TNAP, uHTS hits (AID 488906); type: functional
T3 sequence (P05186 whole entry): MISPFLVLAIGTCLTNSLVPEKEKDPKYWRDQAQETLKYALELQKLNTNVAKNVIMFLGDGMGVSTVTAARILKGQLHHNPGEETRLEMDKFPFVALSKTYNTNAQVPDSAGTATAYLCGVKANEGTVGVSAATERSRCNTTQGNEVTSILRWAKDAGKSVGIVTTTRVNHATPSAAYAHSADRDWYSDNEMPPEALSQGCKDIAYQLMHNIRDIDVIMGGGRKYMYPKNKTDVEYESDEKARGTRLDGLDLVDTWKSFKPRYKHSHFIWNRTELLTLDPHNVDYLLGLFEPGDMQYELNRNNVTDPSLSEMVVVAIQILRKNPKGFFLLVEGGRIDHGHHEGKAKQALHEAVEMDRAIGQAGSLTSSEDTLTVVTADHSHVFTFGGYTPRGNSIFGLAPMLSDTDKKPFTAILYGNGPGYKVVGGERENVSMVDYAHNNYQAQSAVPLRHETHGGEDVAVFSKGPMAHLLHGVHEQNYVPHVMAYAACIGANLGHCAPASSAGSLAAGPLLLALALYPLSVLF

[6] = biological target: Intestinal-type alkaline phosphatase (Mus musculus, UniProt P24822); test: PubChem AID 488785; type: functional
[7] = NIH-3T3 fibroblast cytotoxicity, dose response, cytotoxicity control, cell-based, fluorescence, Alamar Blue, secondary assay (AID 2327); type: functional;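 note: NIH-3T3 mouse fibroblasts cultured with fluconazole at 8 µg/mL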
[8] = C. albicans growth with fluconazole, confirmation, fluorescence, retest (AID 2467); type: functional, cell-based
[9] = biological target: Beta-galactosidase (Escherichia coli, UniProt Q8VNN2); test: beta-galactosidase enzyme inhibitors and activators, dose response, artefact control for CCR6 antagonist project, biochemical, E. coli enzyme, set 3 (AID 504712); type: functional
[10] = biological target: Large T antigen (Simian virus 40, UniProt P03070); type: functional, Betapolyomavirus macacae;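 note: Confirmatory-stage PubChem screen for compounds that inhibit SV40 T antigen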
[11] = biological target: DNA dC->dU-editing enzyme APOBEC-3G (Homo sapiens, UniProt Q9HC16); test: Dose Response confirmation of small molecule APOBEC3G DNA Deaminase Inhibitors via a fluorescence-based single-stranded DNA deaminase assay. [Related pubchem assays (depositor defined):AID493012, AID493028]; type: functional
[12] = biological target: T4, Hexokinase HKDC1 (Homo sapiens, UniProt Q2TB90); test: HKDC1 hexokinase inhibitors, dose response, biochemical, W721R variant (AID 504729); type: functional
T4 sequence (Q2TB90 whole entry): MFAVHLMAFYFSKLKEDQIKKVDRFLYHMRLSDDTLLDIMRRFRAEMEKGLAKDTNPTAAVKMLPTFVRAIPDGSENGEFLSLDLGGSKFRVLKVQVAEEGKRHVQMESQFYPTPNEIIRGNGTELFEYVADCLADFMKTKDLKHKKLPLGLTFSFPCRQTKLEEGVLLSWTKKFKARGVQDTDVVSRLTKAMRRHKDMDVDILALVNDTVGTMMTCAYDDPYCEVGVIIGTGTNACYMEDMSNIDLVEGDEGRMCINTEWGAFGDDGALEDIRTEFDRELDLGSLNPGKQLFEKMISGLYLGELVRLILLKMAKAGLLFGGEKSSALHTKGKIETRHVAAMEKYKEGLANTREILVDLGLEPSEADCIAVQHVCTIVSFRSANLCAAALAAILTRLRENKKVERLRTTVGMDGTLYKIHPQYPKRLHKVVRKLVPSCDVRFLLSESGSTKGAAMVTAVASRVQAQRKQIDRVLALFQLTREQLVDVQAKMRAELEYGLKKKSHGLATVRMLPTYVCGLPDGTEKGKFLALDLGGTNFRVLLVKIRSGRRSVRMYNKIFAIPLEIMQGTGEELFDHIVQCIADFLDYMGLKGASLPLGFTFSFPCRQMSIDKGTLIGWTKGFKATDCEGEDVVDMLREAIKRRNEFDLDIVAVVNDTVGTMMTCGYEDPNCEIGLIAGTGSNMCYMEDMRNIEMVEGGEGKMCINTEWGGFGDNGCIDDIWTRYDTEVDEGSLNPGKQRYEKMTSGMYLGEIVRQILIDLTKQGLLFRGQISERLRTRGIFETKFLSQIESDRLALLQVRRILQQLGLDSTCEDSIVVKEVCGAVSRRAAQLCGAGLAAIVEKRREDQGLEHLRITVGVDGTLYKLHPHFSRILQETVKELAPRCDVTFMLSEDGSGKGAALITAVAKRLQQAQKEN

[13] = test system: Streptococcus sp. 'group A'; test: growth inhibition of control SK(-) GAS strain, dose response, counter-screen for streptokinase expression inhibitor project, luminescence, kanamycin, BacTiterGlo, confirmation (AID 1900); type: functional, organism-based
[14] = test system: Streptococcus; test: Group A Streptococcus viability loss, dose response, counter-screen for streptokinase expression inhibitor project, luminescence, BacTiterGlo (AID 1915); type: functional, organism-based;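 note: potency for reduction of bacterial viability or growth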
[15] = biological target: Heat shock protein HSP 90-alpha (Homo sapiens, UniProt P07900); type: functional, organism-based
[16] = biological target: T5, CAAX prenyl protease 2 (Saccharomyces cerevisiae S288c, UniProt Q03530); type: biochemical
T5 sequence (Q03530 whole entry): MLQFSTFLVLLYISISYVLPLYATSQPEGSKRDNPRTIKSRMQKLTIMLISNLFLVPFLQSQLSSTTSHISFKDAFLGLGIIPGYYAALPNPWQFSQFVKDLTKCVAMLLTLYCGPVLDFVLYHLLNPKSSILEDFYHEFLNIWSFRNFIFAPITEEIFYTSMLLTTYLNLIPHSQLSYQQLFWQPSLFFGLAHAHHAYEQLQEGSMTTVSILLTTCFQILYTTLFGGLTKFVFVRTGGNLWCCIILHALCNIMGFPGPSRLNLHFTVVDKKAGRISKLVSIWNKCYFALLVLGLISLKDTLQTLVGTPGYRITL

[17] = test system: Vero; test: Vero cell cytotoxicity, cytotoxicity control for flavivirus capping enzyme inhibitors (AID 588742); type: functional; conditions: Chlorocebus sabaeus
[18] = biological target: Genome polyprotein (dengue virus type 2, UniProt P29990); test: Dengue-2 NS5 methyltransferase inhibitors, primary screen, biochemical, confirmation dose response (AID 588689); type: functional
[19] = biological target: Induced myeloid leukemia cell differentiation protein Mcl-1 (Homo sapiens, UniProt Q07820); type: functional
[20] = biological target: T6, SUMO-activating enzyme (Homo sapiens, UniProt Q9UBT2); test: inhibitors of in vitro SUMOylation cascade, primary screen, biochemical, HTRF, uHTS (AID 2006); type: protein-complex assay
[21] = biological target: T6, SUMO-activating enzyme; test: SUMOylation inhibitor hit validation, confirmation, SUMOylation inhibitor project, biochemical, AlphaScreen (AID 2018); type: functional

T6 sequence (Q9UBE0 whole entry): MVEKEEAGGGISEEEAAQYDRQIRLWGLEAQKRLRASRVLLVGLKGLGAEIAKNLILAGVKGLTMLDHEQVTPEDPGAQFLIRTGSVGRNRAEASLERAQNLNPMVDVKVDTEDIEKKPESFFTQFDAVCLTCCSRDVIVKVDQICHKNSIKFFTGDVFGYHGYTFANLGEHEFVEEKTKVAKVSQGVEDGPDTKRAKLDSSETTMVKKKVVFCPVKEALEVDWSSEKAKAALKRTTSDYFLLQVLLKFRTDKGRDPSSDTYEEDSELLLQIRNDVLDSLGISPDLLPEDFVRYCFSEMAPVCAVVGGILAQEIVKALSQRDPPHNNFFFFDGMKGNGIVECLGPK
T6 sequence (Q9UBT2 whole entry): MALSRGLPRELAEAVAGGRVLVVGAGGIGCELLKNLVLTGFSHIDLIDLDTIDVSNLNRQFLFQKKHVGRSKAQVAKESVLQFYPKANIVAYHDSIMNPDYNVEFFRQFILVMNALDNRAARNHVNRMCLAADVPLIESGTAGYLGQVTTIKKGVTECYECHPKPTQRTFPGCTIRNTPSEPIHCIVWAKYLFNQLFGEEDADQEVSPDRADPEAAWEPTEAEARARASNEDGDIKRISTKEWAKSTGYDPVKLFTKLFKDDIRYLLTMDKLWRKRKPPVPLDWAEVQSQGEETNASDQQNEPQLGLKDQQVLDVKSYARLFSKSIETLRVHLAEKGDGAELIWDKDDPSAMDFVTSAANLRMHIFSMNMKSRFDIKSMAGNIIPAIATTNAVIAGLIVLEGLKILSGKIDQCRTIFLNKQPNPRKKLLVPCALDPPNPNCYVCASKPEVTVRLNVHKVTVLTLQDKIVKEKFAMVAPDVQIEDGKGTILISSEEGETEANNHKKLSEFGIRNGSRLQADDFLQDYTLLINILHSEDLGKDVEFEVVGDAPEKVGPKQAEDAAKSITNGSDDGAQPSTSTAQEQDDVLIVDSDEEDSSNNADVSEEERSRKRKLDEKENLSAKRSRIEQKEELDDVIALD
Sequence of Beta-galactosidase (Q8VNN2 whole entry): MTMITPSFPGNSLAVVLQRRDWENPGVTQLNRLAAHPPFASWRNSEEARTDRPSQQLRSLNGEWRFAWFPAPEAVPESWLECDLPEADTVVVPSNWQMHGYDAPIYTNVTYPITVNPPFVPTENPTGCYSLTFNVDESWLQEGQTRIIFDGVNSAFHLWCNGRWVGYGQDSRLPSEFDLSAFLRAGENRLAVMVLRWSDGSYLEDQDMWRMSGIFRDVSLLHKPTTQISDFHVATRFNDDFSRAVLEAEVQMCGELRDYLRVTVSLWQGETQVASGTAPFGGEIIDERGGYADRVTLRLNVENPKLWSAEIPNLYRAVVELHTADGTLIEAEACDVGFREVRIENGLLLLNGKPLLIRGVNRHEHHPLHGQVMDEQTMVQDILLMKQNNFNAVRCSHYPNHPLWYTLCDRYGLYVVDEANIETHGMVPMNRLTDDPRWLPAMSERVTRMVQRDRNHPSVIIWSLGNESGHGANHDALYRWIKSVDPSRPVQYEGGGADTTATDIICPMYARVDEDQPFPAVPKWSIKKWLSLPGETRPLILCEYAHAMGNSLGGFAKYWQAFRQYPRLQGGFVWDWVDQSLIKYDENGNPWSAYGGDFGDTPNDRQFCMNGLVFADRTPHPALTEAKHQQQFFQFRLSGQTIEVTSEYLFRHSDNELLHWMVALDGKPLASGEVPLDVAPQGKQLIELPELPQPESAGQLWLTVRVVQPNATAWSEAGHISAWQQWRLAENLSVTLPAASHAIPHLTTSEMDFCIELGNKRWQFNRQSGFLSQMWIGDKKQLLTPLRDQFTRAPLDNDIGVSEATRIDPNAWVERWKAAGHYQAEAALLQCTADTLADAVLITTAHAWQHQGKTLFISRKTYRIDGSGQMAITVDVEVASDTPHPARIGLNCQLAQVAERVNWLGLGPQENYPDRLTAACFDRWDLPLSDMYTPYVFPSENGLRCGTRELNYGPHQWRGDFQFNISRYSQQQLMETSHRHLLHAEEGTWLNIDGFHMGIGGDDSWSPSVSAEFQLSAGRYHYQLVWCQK
Sequence of Large T antigen (P03070 whole entry): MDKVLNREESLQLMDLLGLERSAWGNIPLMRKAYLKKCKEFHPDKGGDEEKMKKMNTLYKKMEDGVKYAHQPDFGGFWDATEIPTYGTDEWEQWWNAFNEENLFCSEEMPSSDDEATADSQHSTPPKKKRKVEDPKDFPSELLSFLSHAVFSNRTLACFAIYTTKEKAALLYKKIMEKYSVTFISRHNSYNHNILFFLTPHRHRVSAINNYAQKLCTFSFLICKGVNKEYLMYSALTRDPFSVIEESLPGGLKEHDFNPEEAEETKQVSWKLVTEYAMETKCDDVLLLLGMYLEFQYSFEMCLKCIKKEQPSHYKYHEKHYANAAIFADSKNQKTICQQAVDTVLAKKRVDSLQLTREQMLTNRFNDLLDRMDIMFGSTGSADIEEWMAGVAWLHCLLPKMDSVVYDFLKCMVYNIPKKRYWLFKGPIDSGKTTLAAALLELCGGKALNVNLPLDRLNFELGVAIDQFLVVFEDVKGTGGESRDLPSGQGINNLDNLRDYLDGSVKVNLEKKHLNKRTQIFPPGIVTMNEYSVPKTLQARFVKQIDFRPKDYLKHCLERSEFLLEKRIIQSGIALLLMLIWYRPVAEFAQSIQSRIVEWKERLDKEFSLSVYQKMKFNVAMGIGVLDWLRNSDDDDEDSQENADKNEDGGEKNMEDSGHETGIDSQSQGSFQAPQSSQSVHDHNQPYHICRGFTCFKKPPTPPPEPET
Sequence of Intestinal-type alkaline phosphatase (Mus musculus, UniProt P24822) (P24822 whole entry): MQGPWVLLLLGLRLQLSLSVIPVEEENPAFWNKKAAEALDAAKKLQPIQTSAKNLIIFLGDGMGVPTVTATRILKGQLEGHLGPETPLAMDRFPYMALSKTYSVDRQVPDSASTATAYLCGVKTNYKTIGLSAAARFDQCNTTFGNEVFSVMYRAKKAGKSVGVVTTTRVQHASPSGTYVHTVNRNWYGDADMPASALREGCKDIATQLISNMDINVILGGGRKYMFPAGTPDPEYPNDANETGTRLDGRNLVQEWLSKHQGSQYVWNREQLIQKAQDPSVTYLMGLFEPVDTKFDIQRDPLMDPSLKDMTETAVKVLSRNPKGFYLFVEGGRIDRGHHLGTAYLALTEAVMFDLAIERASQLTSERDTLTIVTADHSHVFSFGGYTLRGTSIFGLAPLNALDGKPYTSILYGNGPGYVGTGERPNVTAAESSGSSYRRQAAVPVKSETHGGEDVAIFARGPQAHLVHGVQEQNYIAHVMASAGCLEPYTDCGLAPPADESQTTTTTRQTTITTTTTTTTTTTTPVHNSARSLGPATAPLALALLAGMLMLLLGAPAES
Sequence of Induced myeloid leukemia cell differentiation protein Mcl-1 (Q07820 whole entry): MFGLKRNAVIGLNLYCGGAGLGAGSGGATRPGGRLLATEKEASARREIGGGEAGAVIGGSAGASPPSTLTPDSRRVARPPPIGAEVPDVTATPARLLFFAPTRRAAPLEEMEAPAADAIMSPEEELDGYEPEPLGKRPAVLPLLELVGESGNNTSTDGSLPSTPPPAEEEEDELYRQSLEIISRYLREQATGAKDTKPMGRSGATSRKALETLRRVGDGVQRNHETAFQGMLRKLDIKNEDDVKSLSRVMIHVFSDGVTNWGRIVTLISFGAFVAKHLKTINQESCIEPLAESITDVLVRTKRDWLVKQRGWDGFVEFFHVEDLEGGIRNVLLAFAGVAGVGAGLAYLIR
Sequence of Intestinal-type alkaline phosphatase (Homo sapiens, UniProt P09923) (P09923 whole entry): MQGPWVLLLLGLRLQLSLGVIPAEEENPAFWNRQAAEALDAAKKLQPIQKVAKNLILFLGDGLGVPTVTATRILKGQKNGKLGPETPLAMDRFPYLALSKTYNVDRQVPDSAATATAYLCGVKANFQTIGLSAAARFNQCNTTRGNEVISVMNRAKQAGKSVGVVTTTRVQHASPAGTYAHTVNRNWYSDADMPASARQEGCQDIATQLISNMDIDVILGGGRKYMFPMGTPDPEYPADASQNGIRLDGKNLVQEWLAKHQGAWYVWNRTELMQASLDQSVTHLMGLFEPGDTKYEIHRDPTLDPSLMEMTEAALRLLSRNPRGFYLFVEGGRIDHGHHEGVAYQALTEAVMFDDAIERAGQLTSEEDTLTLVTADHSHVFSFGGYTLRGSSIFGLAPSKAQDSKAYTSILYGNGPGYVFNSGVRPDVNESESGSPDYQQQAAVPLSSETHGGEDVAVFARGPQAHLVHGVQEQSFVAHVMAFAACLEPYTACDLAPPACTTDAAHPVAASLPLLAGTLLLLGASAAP
Sequence of DNA dC->dU-editing enzyme APOBEC-3G (Q9HC16 whole entry): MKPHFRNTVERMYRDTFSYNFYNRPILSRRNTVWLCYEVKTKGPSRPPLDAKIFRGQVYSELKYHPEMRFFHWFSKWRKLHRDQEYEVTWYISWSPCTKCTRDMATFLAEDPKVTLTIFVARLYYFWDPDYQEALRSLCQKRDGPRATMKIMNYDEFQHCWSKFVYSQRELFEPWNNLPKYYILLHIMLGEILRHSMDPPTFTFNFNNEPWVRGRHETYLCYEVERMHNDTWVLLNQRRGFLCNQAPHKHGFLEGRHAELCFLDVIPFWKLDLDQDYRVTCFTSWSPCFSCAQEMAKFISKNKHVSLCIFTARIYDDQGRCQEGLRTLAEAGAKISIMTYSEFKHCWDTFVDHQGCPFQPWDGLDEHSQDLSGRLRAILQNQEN

## Cc1cc(OCC(=O)N(C(C)C)C(C)C)cc(C)c1Br
[1]
  EC50: 3.76 µM (active)

## O=C(CN1CCN(c2ccccc2F)CC1)c1ccc(O)c(O)c1
[2]
  EC50: > 100 µM (inactive)
[3]
  IC50: > 79 µM (inactive)
[4]
  AC50: 8.98 µM (active)
[5]
  IC50: 96.8 µM (active)
[6]
  IC50: 1.63 µM (active)

## CCCCn1c(SCC(=O)N2c3ccccc3Sc3ccccc32)nc2c1c(=O)n(C)c(=O)n2C
[1]
  EC50: 4.22 µM (active)

## O=C(NC(=S)Nc1ccccc1O)c1ccc(Cl)cc1Cl
[7]
  EC50: > 160 µM (inconclusive)
[8]
  EC50: 0.636 µM (active)
[9]
  IC50: > 66.6 µM (inactive)

## Sc1nnc(NCCCN2CCOCC2)s1
[10]
  IC50: 22.6 µM (active)
[11]
  IC50: 22.4 µM (active)

## Cc1cccc(N2C(=O)NC(=O)/C(=C\c3cc(C)n(-c4sc5c(c4C#N)CCCC5)c3C)C2=O)c1C
[12]
  IC50: 17.1 µM (active)

## O=C(Nc1nc(-c2ccccc2)c(-c2ccccc2)o1)c1ccc(F)cc1
[13]
  EC50: 0.894 µM (active)
[14]
  EC50: 1.77 µM (active)
[15]
  AC50: 7.59 µM (active)
[9]
  IC50: > 66.6 µM (inactive)

## O=C1C(Cl)=C(Nc2cccc(O)c2)C(=O)N1Cc1ccccc1
[1]
  EC50: 3.76 µM (active)

## CCn1cc(/C=C(\NC(=O)c2ccccc2Cl)C(=O)N2CCOCC2)c2ccccc21
[16]
  AC50: 4.91 µM (active)

## CC(C)c1ccc(S(=O)(=O)/N=C2/C=C(Sc3nc[nH]n3)C(=O)c3ccccc32)cc1
[17]
  CC50: 22.2 µM (active)
[18]
  IC50: 6.89 µM (active)
[12]
  IC50: 2.88 µM (active)
[19]
  IC50: 1.35 µM (active)

## Cc1ccccc1C(=O)Nc1nnc(CC(=O)N/N=C/c2cn(Cc3ccccc3)c3ccccc23)s1
[20]
  IC50: 24.7 µM (active)
[21]
  IC50: 16.8 µM (active)
